Reference: patent US9040524B2, “Antifungal 5,6-dihydro-4H-pyrrolo[1,2-a][1,4]-benzodiazepines and 6H-pyrrolo[1,2-a][1,4]benzodiazepines substituted with bicycle benzene derivatives” (JANSSEN PHARMACEUTICA NV, priority 2010, dated 2015)

Assays:
Format in all cases: cell-based
Sporothrix schenkii = assay: Antifungal activity in vitro, resazurin growth inhibition screen: Sporothrix schenkii; conditions: Sporothrix schenkii B62482; for IC50: read-out: Inf. A pIC50 (converted)
Protocol: (§1) The standard susceptibility screen was performed in 96-well plates (U-bottom, Greiner Bio-One). Serial dilutions (2-fold or 4-fold) of 20 mM compound stock solutions were made in 100% DMSO, followed by an intermediate dilution step in water. These serial dilutions (10 μl) were then spotted onto test-plates that could be stored in the dark at 4° C. for a maximum period of 2 weeks. An adequate broad dose-range was included with 64 μM as the highest in-test concentration. […] The different fungal species/isolates (Table 3a) were cryopreserved and 1/1000 diluted in medium just prior to use. A standard inoculum of 200 μl containing 10^3 colony-forming unit (cfu) was then added to each well. A positive control (100% growth=fungal culture without antifungal) and a negative control (0% growth=RPMI-MOPS medium) were included on each plate.

Scedosporium apiospermum = assay: Antifungal activity in vitro, resazurin growth inhibition screen: Scedosporium apiospermum; conditions: Scedosporium apiospermum IHEM3817; for IC50: read-out: Inf. H pIC50 (converted)
Protocol: as §1

Trichophyton rubrum = assay: Antifungal activity in vitro, resazurin growth inhibition screen: Trichophyton rubrum; conditions: Trichophyton rubrum B68183; for IC50: read-out: Inf. C pIC50 (converted)
Protocol: as §1

Candida parapsilosis = assay: Antifungal activity in vitro, resazurin growth inhibition screen: Candida parapsilosis; conditions: Candida parapsilosis B66126; for IC50: Lodderomyces parapsilosis, read-out: Inf. D pIC50 (converted)
Protocol: as §1

Aspergillus fumigatus = assay: Antifungal activity in vitro, resazurin growth inhibition screen: Aspergillus fumigatus; conditions: Aspergillus fumigatus B42928; for IC50: read-out: Inf. E pIC50 (converted)
Protocol: as §1

Scedosporium prolificans = assay: Antifungal activity in vitro, resazurin growth inhibition screen: Scedosporium prolificans; conditions: Scedosporium prolificans IHEM21157; for IC50: Lomentospora prolificans, read-out: Inf. I pIC50 (converted)
Protocol: as §1

Cryptococcus neoformans = assay: Antifungal activity in vitro, resazurin growth inhibition screen: Cryptococcus neoformans; conditions: Cryptococcus neoformans B66663; for IC50: read-out: Inf. F pIC50 (converted)
Protocol: as §1

Microsporum canis = assay: Antifungal activity in vitro, resazurin growth inhibition screen: Microsporum canis; conditions: Microsporum canis B68128; for IC50: read-out: Inf. B pIC50 (converted)
Protocol: as §1

[1] = tested on: Trichophyton mentagrophytes; assay: Antifungal activity in vitro, resazurin growth inhibition screen: Trichophyton mentagrophytes; conditions: Trichophyton mentagrophytes B70554; for IC50: read-out: Inf. G pIC50 (converted)
Protocol: as §1

Rhizopus oryzae = assay: Antifungal activity in vitro, resazurin growth inhibition screen: Rhizopus oryzae; conditions: Rhizopus oryzae IHEM5223; for IC50: Rhizopus arrhizus, read-out: Inf. J pIC50 (converted)
Protocol: as §1

Rhizomucor miehei = assay: Antifungal activity in vitro, resazurin growth inhibition screen: Rhizomucor miehei; conditions: Rhizomucor miehei IHEM13391; for IC50: read-out: Inf. K pIC50 (converted)
Protocol: as §1

Compound | Inf. A pIC50 (Sporothrix schenkii) | Inf. H pIC50 (Scedosporium apiospermum) | Inf. C pIC50 (Trichophyton rubrum) | Inf. D pIC50 (Candida parapsilosis) | Inf. E pIC50 (Aspergillus fumigatus) | Inf. I pIC50 (Scedosporium prolificans) | Inf. F pIC50 (Cryptococcus neoformans) | Inf. B pIC50 (Microsporum canis) | Inf. G pIC50 [1] | Inf. J pIC50 (Rhizopus oryzae) | Inf. K pIC50 (Rhizomucor miehei) | other results
Br.Clc1cccc2c1CNC(c1ccc3c(c1)CCC3)c1cccn1-2 (stereo not drawn) [Compound 13, 7-chloro-4-(2,3-dihydro-1H-inden-5-yl)-5,6-dihydro-4H-pyrrolo[1,2-a][1,4]benzo-diazepine .HBr] | 5.15 | 4.52 | 6.47 | 5.52 | 5.70 | 5.72 | 5.30 | 6.36 | 6.95 | <4.19 | <4.19 | –
Clc1cc(Cl)c2c(c1)-n1cccc1C(c1ccc3c(c1)CCC3)=NC2 [Compound 23, 7,9-dichloro-4-(2,3-dihydro-1H-inden-5-yl)-6H-pyrrolo[1,2-a][1,4]benzodiazepine] | – | – | – | – | – | – | – | – | – | – | – | IC50 (Sporothrix schenkii): 33900 nM; IC50 (Scedosporium apiospermum): 24000 nM; IC50 (Trichophyton rubrum): 676 nM; IC50 (Candida parapsilosis): 2000 nM; IC50 (Aspergillus fumigatus): 912 nM; IC50 (Scedosporium prolificans): 603 nM; IC50 (Cryptococcus neoformans): 457 nM; IC50 (Microsporum canis): 1000 nM; IC50 [1]: 794 nM; IC50 (Rhizopus oryzae): > 64600 nM; IC50 (Rhizomucor miehei): > 64600 nM
Cl.Clc1cccc2c1CNC(c1ccc3c(c1)CCOC3)c1cccn1-2 (stereo not drawn) [Compound 28, 7-chloro-4-(3,4-dihydro-1H-2-benzopyran-6-yl)-5,6-dihydro-4H-pyrrolo[1,2-a]-[1,4]benzodiazepine .HCl] | <4.19 | 4.97 | 6.66 | 5.53 | 5.99 | 4.63 | 4.71 | 6.24 | 6.29 | <4.19 | 4.39 | –
Clc1cccc2c1CN=C(c1ccc3c(c1)CCOC3)c1cccn1-2 [Compound 37, 7-chloro-4-(3,4-dihydro-1H-2-benzopyran-6-yl)-6H-pyrrolo[1,2-a][1,4]benzo-diazepine] | 5.26 | 4.48 | 6.89 | 5.79 | 6.77 | 5.85 | 5.88 | 6.62 | 6.47 | <4.19 | <4.19 | –
Fc1cccc2c1CN=C(c1ccc3c(c1)CCOC3)c1cccn1-2 [Compound 39, 4-(3,4-dihydro-1H-2-benzopyran-6-yl)-7-fluoro-6H-pyrrolo[1,2-a][1,4]benzo-diazepine] | 4.95 | 5.40 | 6.89 | 5.83 | 6.77 | 5.76 | 5.21 | 6.36 | 6.54 | <4.19 | 4.38 | –
Clc1cc(Cl)c2c(c1)CN=C(c1ccc3c(c1)CCO3)c1cccn1-2 [Compound 48, 8,10-dichloro-4-(2,3-dihydro-5-benzofuranyl)-6H-pyrrolo[1,2-a][1,4]benzo-diazepine] | 5.40 | 4.94 | 6.78 | <4.19 | 5.00 | 5.79 | 5.70 | 6.30 | 6.29 | <4.19 | <4.19 | –
Cl.O=C1CCc2cc(C3NCc4c(Cl)cccc4-n4cccc43)ccc21 (stereo not drawn) [Compound 51, 5-(7-chloro-5,6-dihydro-4H-pyrrolo[1,2-a][1,4]benzodiazepin-4-yl)-2,3-dihydro-1H-inden-1-one .HCl] | 4.46 | 4.67 | 5.84 | 4.91 | 5.24 | 5.32 | 4.74 | 5.59 | 5.32 | <4.19 | 4.29 | –
O=C1CCCc2cc(C3=NCc4c(F)cccc4-n4cccc43)ccc21 [Compound 59, 6-(7-fluoro-6H-pyrrolo[1,2-a][1,4]benzodiazepin-4-yl)-3,4-dihydro-1(2H)-naphthalenone] | – | – | – | – | – | – | – | – | – | – | – | IC50 (Sporothrix schenkii): 4270 nM; IC50 (Scedosporium apiospermum): 741 nM; IC50 (Trichophyton rubrum): 129 nM; IC50 (Candida parapsilosis): 2750 nM; IC50 (Aspergillus fumigatus): 398 nM; IC50 (Scedosporium prolificans): 1480 nM; IC50 (Cryptococcus neoformans): 1120 nM; IC50 (Microsporum canis): 372 nM; IC50 [1]: 339 nM; IC50 (Rhizopus oryzae): > 12900 nM; IC50 (Rhizomucor miehei): 1480 nM
Fc1cc(F)c2c(c1)-n1cccc1C(c1ccc3c(c1)CCC(F)(F)O3)=NC2 [Compound 73, 4-(2,2-difluoro-3,4-dihydro-2H-1-benzopyran-6-yl)-7,9-difluoro-6H-pyrrolo[1,2-a]-[1,4]benzodiazepine] | – | – | – | – | – | – | – | – | – | – | – | IC50 (Sporothrix schenkii): 31600 nM; IC50 (Trichophyton rubrum): 32400 nM; IC50 (Candida parapsilosis): 2140 nM; IC50 (Aspergillus fumigatus): > 64600 nM; IC50 (Cryptococcus neoformans): 4680 nM; IC50 (Microsporum canis): 9330 nM; IC50 [1]: 32400 nM
FC1(F)Oc2ccc(C3=NCc4c(Cl)cccc4-n4cccc43)cc2O1 [Compound 74, 7-chloro-4-(2,2-difluoro-1,3-benzodioxol-5-yl)-6H-pyrrolo[1,2-a][1,4]benzo-diazepine] | <4.19 | 5.5 | 7.39 | <4.19 | 7.08 | 7.05 | <4.19 | 6.87 | 6.58 | <4.19 | <4.19 | –
FC1(F)Oc2ccc(C3=NCc4ccc(Cl)cc4-n4cccc43)cc2O1 [Compound 75, 9-chloro-4-(2,2-difluoro-1,3-benzodioxol-5-yl)-6H-pyrrolo[1,2-a][1,4]benzo-diazepine] | 4.85 | <4.19 | 6.85 | 5.09 | 6.24 | <4.19 | 5.84 | 5.74 | 6.42 | <4.19 | <4.19 | –
FC1(F)Oc2ccc(C3=NCc4cccc(Cl)c4-n4cccc43)cc2O1 [Compound 76, 10-chloro-4-(2,2-difluoro-1,3-benzodioxol-5-yl)-6H-pyrrolo[1,2-a][1,4]benzo-diazepine] | 5.69 | 5.13 | 6.82 | 5.18 | 5.94 | 5.04 | 5.82 | 6.70 | 6.38 | 4.57 | 4.98 | –
Fc1cccc2c1CN=C(c1ccc3c(c1)OC(F)(F)O3)c1cccn1-2 [Compound 77, 4-(2,2-difluoro-1,3-benzodioxol-5-yl)-7-fluoro-6H-pyrrolo[1,2-a][1,4]benzo-diazepine] | – | – | – | – | – | – | – | – | – | – | – | IC50 (Sporothrix schenkii): 3550 nM; IC50 (Scedosporium apiospermum): 22400 nM; IC50 (Trichophyton rubrum): 19.5 nM; IC50 (Candida parapsilosis): 3390 nM; IC50 (Aspergillus fumigatus): 56.2 nM; IC50 (Scedosporium prolificans): 1740 nM; IC50 (Cryptococcus neoformans): 5370 nM; IC50 (Microsporum canis): 135 nM; IC50 [1]: 115 nM; IC50 (Rhizopus oryzae): 12000 nM; IC50 (Rhizomucor miehei): > 64600 nM
CN1CCc2cc(C3=NCc4c(F)cccc4-n4cccc43)ccc21 [Compound 81, 4-(2,3-dihydro-1-methyl-1H-indol-5-yl)-7-fluoro-6H-pyrrolo[1,2-a][1,4]benzo-diazepine] | 4.49 | – | 5.65 | 4.60 | 4.39 | – | 5.29 | 5.28 | 4.90 | – | – | –
Clc1cccc2c1-n1cccc1C(c1ccc3c(c1)CCOC3)=NC2 [Compound 82, 10-chloro-4-(3,4-dihydro-1H-2-benzopyran-6-yl)-6H-pyrrolo[1,2-a][1,4]benzo-diazepine] | 5.06 | – | 5.95 | 4.77 | 5.56 | – | 5.26 | 5.69 | 5.56 | – | – | –
